Assay results as given in ChEMBL document CHEMBL4052736, “Synthesis, antioxidant, antifungal, molecular docking and ADMET studies of some thiazolyl hydrazones” (Bioorg Med Chem Lett, 2017).
Values after ≈ are worked out from the molar mass of the structure shown.

How the values were obtained:
Assay type in all cases: functional
[1] = Antioxidant activity assessed as H2O2 free radical scavenging activity at 20 ug/ml after 10 to 15 mins by spectrophotometric analysis
[2] = Antioxidant activity assessed as DPPH free radical scavenging activity at 40 ug/ml after 15 mins by spectrophotometric method
[3] = Antioxidant activity assessed as DPPH free radical scavenging activity at 20 ug/ml after 15 mins by spectrophotometric method
Candida albicans [4] = assay: Antifungal activity against Candida albicans after 24 hrs by well diffusion method
[5] = Antioxidant activity assessed as H2O2 free radical scavenging activity at 60 ug/ml after 10 to 15 mins by spectrophotometric analysis
Candida albicans [6] = assay: Antifungal activity against Candida albicans assessed as zone of inhibition at 25 ug/ml measured after 24 hrs by well diffusion method; conditions: read-out: IZ
Aspergillus niger [7] = assay: Antifungal activity against Aspergillus niger assessed as zone of inhibition at 50 ug/ml measured after 24 hrs by well diffusion method; conditions: read-out: IZ
Candida albicans [8] = assay: Antifungal activity against Candida albicans assessed as zone of inhibition at 50 ug/ml measured after 24 hrs by well diffusion method; conditions: read-out: IZ
[9] = Antioxidant activity assessed as DPPH free radical scavenging activity measured after 15 mins by spectrophotometric method
[10] = Antioxidant activity assessed as H2O2 free radical scavenging activity by spectrophotometric analysis
Aspergillus flavus [11] = assay: Antifungal activity against Aspergillus flavus assessed as zone of inhibition at 100 ug/ml measured after 24 hrs by well diffusion method; conditions: read-out: IZ
[12] = Antioxidant activity assessed as H2O2 free radical scavenging activity at 40 ug/ml after 10 to 15 mins by spectrophotometric analysis
[13] = Antioxidant activity assessed as DPPH free radical scavenging activity at 60 ug/ml after 15 mins by spectrophotometric method
Candida albicans [14] = assay: Antifungal activity against Candida albicans assessed as zone of inhibition at 100 ug/ml measured after 24 hrs by well diffusion method; conditions: read-out: IZ
Aspergillus niger [15] = assay: Antifungal activity against Aspergillus niger after 24 hrs by well diffusion method
[16] = Antioxidant activity assessed as DPPH free radical scavenging activity at 100 ug/ml after 15 mins by spectrophotometric method
Aspergillus niger [17] = assay: Antifungal activity against Aspergillus niger assessed as zone of inhibition at 100 ug/ml measured after 24 hrs by well diffusion method; conditions: read-out: IZ
[18] = Antioxidant activity assessed as H2O2 free radical scavenging activity at 100 ug/ml after 10 to 15 mins by spectrophotometric analysis
Aspergillus flavus [19] = assay: Antifungal activity against Aspergillus flavus assessed as zone of inhibition at 50 ug/ml measured after 24 hrs by well diffusion method; conditions: read-out: IZ
[20] = Antioxidant activity assessed as H2O2 free radical scavenging activity at 80 ug/ml after 10 to 15 mins by spectrophotometric analysis
Aspergillus niger [21] = assay: Antifungal activity against Aspergillus niger assessed as zone of inhibition at 25 ug/ml measured after 24 hrs by well diffusion method; conditions: read-out: IZ
[22] = Antioxidant activity assessed as DPPH free radical scavenging activity at 80 ug/ml after 15 mins by spectrophotometric method
Aspergillus flavus [23] = assay: Antifungal activity against Aspergillus flavus after 24 hrs by well diffusion method
Aspergillus flavus [24] = assay: Antifungal activity against Aspergillus flavus assessed as zone of inhibition at 25 ug/ml measured after 24 hrs by well diffusion method; conditions: read-out: IZ

SMILES | inhibition [1] [%] | inhibition [2] [%] | inhibition [3] [%] | MIC (Candida albicans [4]) [µg/mL] | inhibition [5] [%] | zone of inhibition at 25 µg/mL (Candida albicans [6]) [mm] | zone of inhibition at 50 µg/mL (Aspergillus niger [7]) [mm] | zone of inhibition at 50 µg/mL (Candida albicans [8]) [mm] | IC50 [9] [µg/mL] | IC50 [10] [µg/mL] | zone of inhibition at 100 µg/mL (Aspergillus flavus [11]) [mm] | inhibition [12] [%] | inhibition [13] [%] | zone of inhibition at 100 µg/mL (Candida albicans [14]) [mm] | MIC (Aspergillus niger [15]) [µg/mL] | zone of inhibition at 100 µg/mL (Aspergillus niger [17]) [mm] | zone of inhibition at 50 µg/mL (Aspergillus flavus [19]) [mm] | zone of inhibition at 25 µg/mL (Aspergillus niger [21]) [mm] | MIC (Aspergillus flavus [23]) [µg/mL] | zone of inhibition at 25 µg/mL (Aspergillus flavus [24]) [mm] | also measured
Clc1ccc(/C=N/Nc2nc(-c3ccccc3)cs2)c(Cl)c1 | 78.1 | 90.2 | 76.6 | 3.12 (≈ 8.96 µM) | 80.4 | 12 | 10 | 14 | 29.307 (≈ 84.2 µM) | 43.712 (≈ 126 µM) | 25 | 78.9 | 92.8 | 15 | 12.5 (≈ 35.9 µM) | 11 | 15 | 8 | < 3.12 | 12 | inhibition [16]: 95.8%; inhibition [18]: 87.4%; inhibition [20]: 83.1%; inhibition [22]: 92.6%
OC(Cn1cncn1)(Cn1cncn1)c1ccc(F)cc1F [FLUCONAZOLE] | – | – | – | < 3.12 | – | 15 | 20 | 22 | – | – | 20 | – | – | 28 | < 3.12 | 25 | 18 | 14 | < 3.12 | 15 | –
Clc1ccc(-c2csc(N/N=C/c3ccc(Cl)cc3Cl)n2)cc1 | 76 | 85.9 | 73.9 | 3.12 (≈ 8.15 µM) | 80.4 | 10 | 13 | 15 | 32.224 (≈ 84.2 µM) | 43.537 (≈ 114 µM) | 16 | 76.2 | 88.9 | 18 | 6.12 (≈ 16 µM) | 17 | 15 | 12 | 6.25 (≈ 16.3 µM) | 12 | inhibition [16]: 92.4%; inhibition [18]: 84.4%; inhibition [20]: 83.1%; inhibition [22]: 92.3%
